Measured values published in patent US6906205B2, “Spiro and dispiro 1,2,4-trioxolane antimalarials” (Medicines for Malaria Venture MMV, priority 2002, dated 2005).
Converted amounts (≈) assume the structure as drawn. Like-named read-outs stand apart in the source and are kept apart here.

Experiments:
[1] = system: neuroblastoma cell line; assay: toxicity in a neuroblastoma cell line; type: cell-based
[2] = system: P. falciparum; assay: in vitro potency against P. falciparum (strain not stated); type: cell-based; settings: Plasmodium falciparum
[3] = system: ANKA strain of P. berghei; assay: single dose STI in vivo screen in infected mice; parameters: species or system Plasmodium berghei
How it was run: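 Groups of 3-5 Moro SPF or NMRI mice infected with the ANKA strain of P. berghei received a single dose of trioxolane on day one post-infection. The compound was given in 3% ethanol and 7% Tween 80 or in SSV (0.5% w/v CMC, 0.5% v/v benzyl alcohol, 0.4% v/v Tween 80, 0.9% w/v sodium chloride in water). Antimalarial activity was scored as percent reduction in parasitemia on day three and as survival time versus untreated controls. Survival to day 30 counted as cure.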

[4] = system: Schistosoma mansoni adult schistosomes (49-day-old); assay: effect on adult schistosomes (49-day-old) in mice; type: in vivo
Protocol: Mice were infected with 100 Schistosoma mansoni cercariae […]. Each group was treated per os with OZ compounds at single doses of 200, 400, and 600 mg/kg. […] All groups were killed 4 weeks after treatment and the liver and intestine were removed and separated. The liver and intestine were compressed and alive male and female worms could be seen and counted.

[5] = system: P. falciparum K1 strain (Thailand resistant to chloroquine); assay: semiautomated microdilution assay, [3H]-hypoxanthine incorporation, K1 strain; type: cell-based, Plasmodium falciparum; settings: K1 strain, 72 h incubation
How it was run: (§1)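 Asynchronous stock cultures → intraerythrocytic forms; semiautomated microdilution; IC50 by logit regression.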

[6] = system: ANKA strain of Plasmodium berghei; assay: single dose ED50/ED90/ED99 determinations in infected mice; type: in vivo; settings: single dose po in SSV, mice, percent reduction in parasitemia on day three post-infection
How it was run: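 Mice (Moro SPF or NMRI, n=3 per group) infected with P. berghei ANKA received a single dose on day 1 post-infection, vehicle 0.5% CMC/0.5% benzyl alcohol/0.4% Tween 80/0.9% NaCl in water. Read-out is percent reduction in parasitemia on day 3; ED values by nonlinear fitting.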

[7] = Rane test, single 640 mg/kg doses in mice; type: in vivo
[8] = system: P. falciparum NF54 strain (sensitive to standard antimalarials); assay: semiautomated microdilution assay, [3H]-hypoxanthine incorporation, NF54 strain; type: cell-based, Plasmodium falciparum
How it was run: as §1

[9] = type: physicochemical
From the text: It is presumed that thermal decomposition of these trioxolanes was initiated by formation of a 1,5 diradical produced by homolytic cleavage of the peroxide bond of the trioxolane ring.

[10] = dosing in dogs; type: in vivo; settings: dog
From the text: (§2) Artesunate is listed as a reference compound.

[11] = system: parasitemia (malaria infection); assay: onset of action and recrudescence experiments; type: in vivo; settings: single 100 mg/kg po (SSV) on day +3 post-infection; recrudescence = >5% parasitemia; followed up to 60 days; (n/5) = animals
Protocol: The onset of drug action was determined after a single fixed dose of 100 mg/kg (SSV vehicle) po to groups of five animals on day +3 post-infection (day 0).

[12] = dosing in rats; type: in vivo; settings: rat
From the text: as §2

[13] = system: Schistosoma mansoni adult schistosomes (49-day-old); assay: effect on adult schistosomes (49-day-old) in mice; type: in vivo; settings: 1 × 600 mg/kg sc.
[14] = system: Schistosoma mansoni 21-day-old schistosomules; assay: effect on 21-day-old schistosomules in mice; type: in vivo; settings: single 200 mg/kg per os, female mice
Protocol: All groups were killed 4 weeks after treatment and the liver and intestine were removed and separated. The liver and intestine were compressed and alive male and female worms could be seen and counted. The effect of the compounds was evaluated by mean total and female worm burden.

O=C1CCC2(CC1)OOC1(O2)C2CC3CC(C2)CC1C3 (stereo not drawn) [OZ05]
toxicity in a neuroblastoma cell line [1]: no toxicity | IC50 [2]: 1 to 5 ng/mL (≈ 3.59 to 18 nM) | Activity (%) po ([3]; percent reduction in parasitemia day 3 post-infection, single 10 mg/kg po in 3% ethanol and 7% Tween 80, mice): 94% | Activity (%) sc ([3]; percent reduction in parasitemia day 3 post-infection, single 10 mg/kg sc in 3% ethanol and 7% Tween 80, mice): 99.7% | Activity (%) SSVpo ([3]; percent reduction in parasitemia day 3 post-infection, single po dose in standard suspending vehicle (SSV), mice): 74% | Survival (days) po ([3]; single 10 mg/kg po in 3% ethanol and 7% Tween 80, untreated control 5.6 ± 0.3): 7.1 days | Survival (days) sc ([3]; single 10 mg/kg sc in 3% ethanol and 7% Tween 80, untreated control 5.6 ± 0.3): 8.6 days | Survival (days) SSVpo ([3]; single po dose in SSV, untreated control 5.6 ± 0.3): 6.2 days | adult worms at day 49, per os 200 mg/kg, DEAD WORM (%) ([4]; single 200 mg/kg per os): 12% | adult worms at day 49, per os 400 mg/kg, DEAD WORM (%) ([4]; single 400 mg/kg per os): 32% | adult worms at day 49, per os 600 mg/kg, DEAD WORM (%) ([4]; single 600 mg/kg per os): 58% | IC50 ([5]; Plasmodium falciparum, read-out: IC50 (ng/ml) K1): 0.19 ng/mL (≈ 0.683 nM) | ED50 ([6]; Plasmodium berghei, read-out: ED50): 8.7 mg/kg | ED90 [6]: 12 mg/kg | ED99 [6]: 15 mg/kg | toxicity at single 640 mg/kg doses in mice in the Rane test [7]: no toxicity

C1CCC2(CC1)OOC1(O2)C2CC3CC(C2)CC1C3 (stereo not drawn) [OZ03]
toxicity in a neuroblastoma cell line [1]: no toxicity | IC50 [2]: 1 to 5 ng/mL (≈ 3.78 to 18.9 nM) | IC50 ([8]; Plasmodium falciparum, NF54, 72 h, read-out: IC50 (ng/ml) NF54): 1.6 ng/mL (≈ 6.05 nM) | toxicity at single 640 mg/kg doses in mice in the Rane test [7]: no toxicity

C[C@@H]1CC[C@H]2[C@@H](C)C(=O)O[C@@H]3O[C@@]4(C)CC[C@@H]1[C@]32OO4 [Artemisinin, artemisinin]
Tm, dec (DSC thermal stability) [9]: 181 °C

Cc1ccc(S(=O)(=O)O)cc1.O=C(C[C@H]1CC[C@]2(CC1)OO[C@]1(O2)C2CC3CC(C2)CC1C3)N1CCNCC1 [OZ279]
Survival (days) 3 mg/kg SSV po ([3]; single 3 mg/kg po in SSV): 8.4 days | Survival (days) 10 mg/kg SSV po ([3]; single 10 mg/kg po in SSV): 9.3 days | IV t1/2 (10 mg/kg) ([10]; IV 10 mg/kg): 2.958 h | Oral t1/2 (10 mg/kg) ([10]; oral 10 mg/kg): 3.255 h | Oral Bioavailability 10 mg/kg ([10]; oral 10 mg/kg, OZ 279, OZ 256, OZ 209 values flagged (V)): 32.8% | Oral Bioavailability 25 mg/kg ([10]; oral 25 mg/kg, OZ 279, OZ 256, OZ 209 values flagged (V)): 55.7% | Time of Recrudescence [11]: 15.0 days | IV t1/2 (10 mg/kg) ([12]; IV 10 mg/kg): 1.675 h | Oral Bioavailability 10 mg/kg ([12]; oral 10 mg/kg): 37.2% | Oral Bioavailability 25 mg/kg ([12]; oral 25 mg/kg): 71.1% | Oral t1/2 (25 mg/kg) ([12]; oral 25 mg/kg): 2.78 h | % reduction of adult worms growth at day 49 after per os application of 400 mg/kg, TWR (%) ([4]; single 400 mg/kg per os): 0% | adult worms at day 49, per os 400 mg/kg, DEAD WORM (%) ([4]; single 400 mg/kg per os): 12% | % reduction of adult worms growth at day 49 after per os application of 600 mg/kg, TWR (%) ([4]; single 600 mg/kg per os): 33% | adult worms at day 49, per os 600 mg/kg, DEAD WORM (%) ([4]; single 600 mg/kg per os): 20% | IC50 (ng/ml) K1 [5]: 0.21 ng/mL | ED50 [6]: 0.63 mg/kg | ED90 [6]: 1.8 mg/kg | ED99 [6]: 3.9 mg/kg | IC50 (ng/ml) NF54 ([8]; NF54 strain, 72 h incubation): 0.24 ng/mL | % reduction of adult worms growth, 1 × 600 sc., TWR (%) [13]: 21% | adult worms, 1 × 600 sc., DEAD WORM (%) [13]: 27% | % reduction of schistosomule growth at day 21 after per os application of 200 mg/kg, FWR (%) [14]: 88% | % reduction of schistosomule growth at day 21 after per os application of 200 mg/kg, TWR (%) [14]: 86%
